Assay results as given in US20090317501A1, “Pinus Pinea Plant Extracts For Treating Osteoporosis and the Extraction Process Thereof” (priority 2006, published 2009).

System: osteoclastic bone resorption
Experiment: Bone resorption screening, CTX release by osteoclasts on bovine bone slices
Assay type: cell-based, human
Conditions: positive control; DMSO negative control set to 100%; 5 days incubation
Text: Studies have determined that osteoclasts are largely derived from CD14 positive monocytes (J. Haemotol, 1999 July; 106(1):167-70). Clonal analysis of haematopoietic cells by surface phenotypes has been used to further identify osteoclast precursor by characterizing osteoclast like cells distinct from other haematopoietic progenitors (Lee et.al; 1992b Muguruma & Lee; 1988). Surface phenotype analysis has shown that human osteoclasts are derived from CD14 monocytes (Massey & Flanagan, 1999). CD 14 marker is strongly expressed on monocytes, the putative osteoclast precursor in peripheral blood and CD14 positive monocytes have been selected for osteoclastogenesis. (Clin. Sci (Lond) 2000, August, 99 (2): 133-40).
The osteoclasts were isolated as CD 14 positive monocytes and were differentiated into osteoclasts for 10-12 days. Hereafter the osteoclasts were lifted by trypsin, counted and seeded on bovine bone slices at a density of 40,000 cells per bone slice. The osteoclasts were seeded on the cone slices for one day before the plant extracts were added. The osteoclasts were hereby allowed to attach and initiate the resorption activity. […]
The bone resorption experiment was ended after 5 days of incubation and the cell viability was measured by the use of the Alamar blue assay as represented in FIG. 3. […]

CO/C1=C\C(C)=C\[C@@H](C)[C@@H](O)[C@@H](C)C/C(C)=C/C=C/[C@H](OC)[C@@H]([C@@H](C)[C@@H](O)[C@H](C)[C@@]2(O)C[C@@H](O)[C@H](C)[C@@H](C(C)C)O2)OC1=O [Bafilomycin]
remaining bone resorption (CTX release) as % of DMSO control: approximately 8%
